Values after ≈ are worked out from the molar mass of the structure shown. Read-outs that look alike come from different tables or passages of the source.
Columns and labels:
[1] = target: T1, human recombinant COX2 (hCOX2) (UniProt P35354); test: LCMS-based COX2 enzymatic inhibition assay (PGE2 quantification); format: biochemical; design: COX2 2 minutes pge2/pge2d4 area ratio Avg; other: 2 minutes; readout pge2/pge2d4 area ratio; average; COX2 2 minutes pge2/pge2d4 area ratio Avg; LLE; average LLE; COX2 2 minutes pge2 area (counts) Avg; readout pge2 area (counts); other: 2 min; "ovine COX2 (oCOX2), human recombinant COX2 (hCOX2)"; conditions: for COX2 2 minutes pge2/pge2d4 area ratio Avg. LLE / COX2 2 minutes pge2 area (counts) Avg. LLE / COX2 10 minutes pge2 area (counts) Avg. LLE: average LLE; for IC50: average
T1 sequence (P35354 1-604): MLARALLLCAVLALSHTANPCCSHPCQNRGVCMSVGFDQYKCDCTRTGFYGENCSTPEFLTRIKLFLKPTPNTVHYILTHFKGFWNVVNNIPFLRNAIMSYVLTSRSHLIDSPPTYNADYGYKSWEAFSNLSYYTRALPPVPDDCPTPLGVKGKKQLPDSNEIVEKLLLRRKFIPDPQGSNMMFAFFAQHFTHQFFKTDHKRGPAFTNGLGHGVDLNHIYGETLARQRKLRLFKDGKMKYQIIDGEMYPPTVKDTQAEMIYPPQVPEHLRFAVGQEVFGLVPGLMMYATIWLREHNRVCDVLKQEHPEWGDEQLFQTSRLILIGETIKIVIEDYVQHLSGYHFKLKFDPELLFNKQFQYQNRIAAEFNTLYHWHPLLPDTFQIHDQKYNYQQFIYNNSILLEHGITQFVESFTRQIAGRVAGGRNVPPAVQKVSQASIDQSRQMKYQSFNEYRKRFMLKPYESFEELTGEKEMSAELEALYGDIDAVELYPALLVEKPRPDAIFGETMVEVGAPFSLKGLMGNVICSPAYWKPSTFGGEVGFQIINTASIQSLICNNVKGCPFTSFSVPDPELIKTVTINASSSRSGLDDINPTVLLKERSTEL
Outline: (§1)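 Ovine COX-1 (0.1 μg) or human recombinant COX2 (0.2 μg) in 100 mM Tris.HCl pH 8.0 with hematin and epinephrine, preincubated with inhibitor 10 min at 37 °C. Reaction with 5 μM arachidonic acid stopped after 2 min with HCl; PGE2 quantified by LC-MS-MS. IC50 from 12 concentrations in triplicate.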

[2] = mouse plasma protein binding (PPB) assay; format: in vitro ADME; conditions: average, read-out: Mouse Plasma Protein Binding % Bound Avg (converted)
Description: (§2) We have adapted a previously reported cyclooxygenase enzymatic assay utilizing LCMS quantification of PGE2 as the product of COX-1 and COX2 catalyzed conversion of arachidonic acid to evaluate the binding properties of newly synthesized ligands [Cao, 2011]. These optimized and miniaturized (384-well plates) LCMS-based COX-1 and COX2 enzymatic assays enabled us to quickly evaluate newly synthesized ligands for COX2 binding affinity and selectivity vs COX-1. Using a shorter ligand-enzyme incubation time in the LCMS assay (2 minutes vs 10 minutes) also permitted us to prioritize ligands with faster binding kinetics. Considering the relatively slow on-rate kinetics of known coxibs, due to their 3-step binding mechanism [Marnett, 2009], we believe that optimizing this critical parameter will be key to the successful development of a COX2 PET tracer. Using these enzymatic assays, we have evaluated>200 newly synthesized ligands against COX2 and >20 ligands against COX-1. Another critical property necessary for a good PET radiotracer is to have low non-specific binding (NSB) to increase the free fraction and maximize the signal to noise ratio. This property can be evaluated using in-vitro protein binding assays, and we have now evaluated>50 newly synthesized ligands in mouse, rat and human plasma protein binding (PPB) assays as well as >15 ligands in a mouse brain protein binding (BPB) assay.

[3] = Mouse Plasma Protein Stability (% Remaining); format: in vitro ADME; conditions: average
ovine COX-1 (oCOX-1) = target: T2, ovine COX-1 (oCOX-1) (Ovis aries, UniProt P05979); test: LCMS-based COX-1 enzymatic inhibition assay (PGE2 quantification); format: biochemical; conditions: for COX1 10 minutes pge2/pge2d4 area ratio Avg. LLE / COX1 10 minutes pge2 area (counts) Avg. LLE: average LLE
T2 construct: purchased Cayman Chemicals (Ann Arbor, Mich.)
T2 sequence (P05979 25-600): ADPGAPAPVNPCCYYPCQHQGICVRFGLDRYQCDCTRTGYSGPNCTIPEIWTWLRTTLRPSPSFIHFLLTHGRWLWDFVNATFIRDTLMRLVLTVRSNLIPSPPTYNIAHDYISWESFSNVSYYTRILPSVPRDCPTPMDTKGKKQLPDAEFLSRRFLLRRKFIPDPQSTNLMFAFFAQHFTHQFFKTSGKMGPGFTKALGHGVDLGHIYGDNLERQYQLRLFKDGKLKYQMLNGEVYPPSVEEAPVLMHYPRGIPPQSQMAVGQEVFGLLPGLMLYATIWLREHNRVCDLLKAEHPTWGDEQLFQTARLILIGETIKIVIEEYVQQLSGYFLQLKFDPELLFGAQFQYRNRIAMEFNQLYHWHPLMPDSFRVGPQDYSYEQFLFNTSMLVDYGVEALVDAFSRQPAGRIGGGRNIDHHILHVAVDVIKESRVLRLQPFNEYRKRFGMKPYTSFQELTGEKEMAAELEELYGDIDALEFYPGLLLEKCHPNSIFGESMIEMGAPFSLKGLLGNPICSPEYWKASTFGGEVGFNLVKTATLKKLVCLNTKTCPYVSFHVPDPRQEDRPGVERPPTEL
Outline: as §1

PBS Solubility (no DMSO) = format: physicochemical; conditions: aqueous buffer, thermodynamic from solid, average
[4] = Rat Plasma Protein Stability (% Remaining); format: in vitro ADME; conditions: average
[5] = human plasma protein binding (PPB) assay; format: in vitro ADME; conditions: average, read-out: Human Plasma Protein Binding % Bound Avg (converted)
Description: as §2

[6] = rat plasma protein binding (PPB) assay; format: in vitro ADME; conditions: average, read-out: Rat Plasma Protein Binding % Bound Avg (converted)
Description: as §2

[7] = Human Plasma Protein Stability (% Remaining); format: in vitro ADME; conditions: average
[8] = Human Microsome Stability; format: in vitro ADME; conditions: human microsomes
[9] = 2 minutes, readout pge2/pge2d4 area ratio
[10] = 2 minutes, readout pge2/pge2d4 area ratio, read-out: COX2 2 minutes pge2/pge2d4 area ratio Avg. IC50
[11] = 2 minutes, readout pge2 area (counts)
[12] = 2 minutes, readout pge2 area (counts), read-out: COX2 2 minutes pge2 area (counts) Avg. IC50
[13] = 10 minutes, readout pge2/pge2d4 area ratio
[14] = 10 minutes, readout pge2/pge2d4 area ratio, average, read-out: COX1 10 minutes pge2/pge2d4 area ratio Avg. IC50
[15] = 10 minutes, readout pge2 area (counts)
[16] = 10 minutes, readout pge2 area (counts), average, read-out: COX1 10 minutes pge2 area (counts) Avg. IC50
[17] = 10 minutes, readout pge2 area (counts), read-out: COX2 10 minutes pge2 area (counts) Avg. IC50

SMILES | COX2 2 minutes pge2/pge2d4 area ratio Avg. LLE [1, 9] | IC50 [1, 10] [nM] | COX2 2 minutes pge2 area (counts) Avg. LLE [1, 11] | IC50 [1, 12] [nM] | fraction unbound [2] | Mouse Plasma Protein Stability % Remaining Avg [3] [%] | COX1 10 minutes pge2/pge2d4 area ratio Avg. LLE (ovine COX-1 (oCOX-1); [13]) | IC50 (ovine COX-1 (oCOX-1); [14]) [nM] | COX1 10 minutes pge2 area (counts) Avg. LLE (ovine COX-1 (oCOX-1); [15]) | IC50 (ovine COX-1 (oCOX-1); [16]) [nM] | solubility (PBS Solubility (no DMSO)) [µM] | Rat Plasma Protein Stability % Remaining Avg [4] [%] | fraction unbound [5] | fraction unbound [6] | Human Plasma Protein Stability % Remaining Avg [7] [%] | IC50 (ovine COX-1 (oCOX-1)) [nM] | Human Microsome Stability % Remaining Avg [8] [%] | COX2 10 minutes pge2 area (counts) Avg. LLE [1, 15] | IC50 [1, 17] [nM]
C[C@H](Oc1cncc(-c2ccc(S(C)(=O)=O)cc2)n1)c1cccs1 (single isomer, unassigned) [Compound 53] | 4.852 | 25 | 4.799 | 27.6 | 0.001 | 36.7 | 2.125 | 8610 | 2.0112 | 11700 |  |  |  |  |  |  |  |  | 
NS(=O)(=O)c1ccc(-c2cncc(OCc3cccs3)n2)cc1 [Compound 3] | 6.484 | 5.55 | 6.512 | 5.38 | 0.015 | 94.9 | 4.28 | 1100 | 4.323 | 913 | 8.5 (≈ 2.95 µg/mL) |  |  |  |  |  |  |  | 
CS(=O)(=O)c1ccc(-c2nc(OCc3cccs3)cc3ccoc23)cc1 [Compound 5] |  | 6.05 |  | 7.14 |  |  |  |  |  |  |  | 99 | 0.001 | 0.001 | 102 |  |  |  | 
Cc1ccsc1CNc1cccc(-c2ccc(S(C)(=O)=O)cc2)n1 [Compound 7] | 4.522 | 6.36 | 4.509 | 7.11 | 0.015 | 97.8 | 0.564 |  | 0.564 |  |  |  |  |  |  | 52000 |  |  | 
CS(=O)(=O)c1ccc(-c2cccc(OCc3ccsc3)n2)cc1 [Compound 9] | 4.3 | 8.03 | 4.276 | 8.91 |  |  | 0.4674 | 48900 |  |  | 3.7 (≈ 1.28 µg/mL) | 121 | 0.003 | 0.003 | 114 |  | 35 |  | 
CS(=O)(=O)c1ccc(-c2cncc(SCc3cccs3)n2)cc1 [Compound 18] | 4.93 | 9.99 | 5.018 | 8.22 | 0.002 | 103.7 | 2.392 | 3140 | 2.308 | 4430 |  |  |  |  |  |  |  |  | 
CCOc1ncc(NCc2cccs2)nc1-c1ccc(S(C)(=O)=O)cc1 [Compound 25] | 5.041 | 11.8 | 4.857 | 19.6 | 0.015 | 93.1 | 1.374 |  | 1.374 |  |  |  |  |  |  | 52000 |  |  | 
CS(=O)(=O)c1ccc(-c2ccc3ccn(Cc4ccoc4)c3n2)cc1 [Compound 26] | 3.778 | 12 | 3.652 | 16.6 | 0.018 | 97.5 | 0.9493 | 11400 | 0.6431 | 16700 |  |  |  |  |  |  | 43 |  | 
COc1cc(NCc2cccs2)cc(-c2ccc(S(C)(=O)=O)cc2)n1 [Compound 32] | 4.433 | 15.5 | 4.493 | 14 | 0.015 | 100.9 |  |  |  |  |  |  |  |  |  |  |  | 5.338 | 2.5
CS(=O)(=O)c1ccc(-c2nc(NCc3ccoc3)ccc2F)cc1 [Compound 48] |  | 22 |  | 20.1 |  |  |  |  |  |  | 40 (≈ 13.9 µg/mL) | 128 | 0.02 | 0.031 | 96 |  | 34 |  | 
CN(Cc1cccs1)c1cncc(-c2ccc(S(C)(=O)=O)cc2)n1 [Compound 51] | 5.185 | 23.9 | 5.211 | 23.2 | 0.015 | 109.5 | 3.094 | 2930 | 3.234 | 2230 |  |  |  |  |  |  |  | 6.088 | 3.57

Reference: patent publication US20220348590A1, “CYCLOOXYGENASE-2 INHIBITORS AND USES THEREOF” (The Board Institute, Inc., priority 2019, published 2022)
